Assay results reported in patent US20070191437A1, “Continuous Dosing Regimen” (priority 2003, published 2007).
Marks after values point to notes of the source that are not given here.

How the values were obtained:
[1] = system: MDA-MB-468 breast; assay: MDA-MB-468 breast subcutaneous flank xenografts in female nude mice, HPM with docetaxel (Example 3); type: in vivo; details: 33.3 mg/kg/day i.v., q.d × 1
Experimental: Tumor cells derived from serially passaged tumor fragments were inoculated s.c. in female nude mice on day 0. On day 10, mice bearing established tumors were size matched at about 231 mm^3 and divided into the following groups:
1. HPM at 100 mg/kg/day (p.o., q.d., 5 days on, 5 days off ×2)
2. HPM at 75 mg/kg/day (p.o., q.d., 5 days on, 5 days off ×2)
3. HPM at 0 mg/kg/day (p.o., q.d., 5 days on, 5 days off ×2)
4. Docetaxel at 33.3 mg/kg/day (i.v., q.d. ×1)
5. Docetaxel at 0 mg/kg/day (i.v., q.d. ×1)
6. Combination therapy: HPM at 100 mg/kg/day and docetaxel at 33.3 mg/kg/day
7. Combination therapy: HPM at 75 mg/kg/day and docetaxel at 33.3 mg/kg/day

[2] = Calu-6 flank xenograft model in male scid mice, HPM with docetaxel (Example 1); type: in vivo; details: male, scid, mouse, in vivo
Experimental: (§1) Male scid mice (Charles River Labs.) were injected subcutaneously with 0.2 mL of 2×10^6 Calu-6 cells (1:1 with matrigel) on study day 0. The cellular implantation site was the right flank, and all mice were ear tagged. On day 13, tumors were size matched to 247 mm^3 and animals were placed into the therapy groups outlined in the study design below. All treatments were initiated on day 13 post tumor inoculation. The tumors were measured with calipers 2 times per week after tumors were palpable. Tumor volumes were calculated according to the formula V=L×W^2/2 (V: volume, mm^3; L: length, mm. W: width, mm). Mouse group weights were taken 2 times per week to monitor weight loss from toxicity or excessive tumor burden. The mice were humanely euthanized when the tumor volumes reached a predetermined size. The study design was as follows:
(§2) 1. HPM vehicle and docetaxel at 20 mg/kg/day.
(§3) 2. HPM vehicle and docetaxel at 10 mg/kg/day.
(§4) 3. HPM at 100 mg/kg/day and docetaxel vehicle.
(§5) 4. HPM at 75 mg/kg/day and docetaxel vehicle.
(§6) 5. HPM at 100 mg/kg/day and docetaxel at 20 mg/kg/day.
(§7) 6. HPM at 100 mg/kg/day and docetaxel at 10 mg/kg/day.
(§8) 7. HPM at 75 mg/kg/day and docetaxel at 20 mg/kg/day.
(§9) 8. HPM at 75 mg/kg/day and docetaxel at 10 mg/kg/day.
(§10) 9. HPM vehicle and docetaxel vehicle.
(§11) HPM was dosed orally on a (q.d.×5, 5 days off)×2 schedule. The drug was formulated in 1% HCl, 4% ethanol, and 95% D5W. Docetaxel was dosed intravenously, (q.10d.)×2 and formulated in saline.

[3] = system: Calu-6 cells; assay: as above; type: in vivo; details: docetaxel q.10d. at 20 mg/kg/day
Experimental: as §1, §2, §3, §4, §5, §6, §7, §8, §9, §10, §11

[4] = target: biotinylated bovine brain tubulin; details: competition of [3H]colchicine
[5] = system: NCI-H460 human non-small cell lung carcinoma; assay: NCI-H460 xenograft model; type: in vivo; details: for activity: comparators
Source text: NCI-H460 is a human non-small cell lung carcinoma derived cell line. It is MDR negative, has wild type p53, and contains an oncogenic K-ras mutation.

[6] = system: M5076 murine reticulum cell sarcoma; details: for ILS / response of the model to the drug: comparator drugs, dose not given
[7] = system: HCT-15 human colon carcinoma; assay: HCT-15 human colon carcinoma xenografts; type: in vivo; details: for efficacy in inhibiting tumor growth: MDR positive line
Source text: HCT-15 is a human colon carcinoma derived cell line. It is MDR positive, and expresses both mutant p53 and oncogenic K-ras. The HCT-15 cell line has one of the highest levels of mdr-1/P-glycoprotein expression of cells from the NCI tumor cell line panel.

[8] = system: Calu-6 lung; assay: Calu-6 lung subcutaneous flank xenografts in male nude mice, HPM with cisplatin (Example 6); type: in vivo; details: 10 mg/kg/day i.p., q.d × 1
Experimental: In a non-small cell lung cancer study, tumor cells were inoculated s.c. into male nude mice on day 0. On day 10, mice bearing established tumors were size matched at about 233 mm^3 and placed into the following groups: • 1. […]., 5 days on, 5 days off ×2) • 2. PM-75 mg/kg/day (p.o., q.d., 5 days on, 5 days off×2) • 3. PM-0 mg/kg/day (p.o., q.d., 5 days on, 5 days off ×2) • 4. […] Cisplatin 0 mg/kg/day (ip, qd ×1) • 6. […] Combination Therapy Vehicles

[9] = system: C26 colon tumors; assay: C26 colon tumors grown in the flank of CDF-1 mice; type: in vivo
[10] = system: MDA-MB-468 breast carcinoma; assay: Staged human tumor xenograft, MDA-MB-468; type: in vivo
Source text: (§12) (2-((hydroxyphenyl)amino)pyrid-3-yl)-4-methoxybenzenesulfonamide inhibited the growth of a variety of human tumor xenografts that were allowed to grow into established tumors prior to the initiation of treatment. As summarized below, activity was seen against established tumors derived from colon, breast and lung carcinomas. (2-((4-hydroxyphenyl)amino)pyrid-3-yl)-4-methoxybenzenesulfonamide was also active against a human pancreatic tumor xenograft grown in the orthotopic site.

[11] = Clinical safety review, adverse events by grade; type: in vivo, human
Experimental: For 134 patients tested, at doses of about 200 mg QD, 250 mg QD, 300 mg QD, 125 mg BID, 150 mg BID, and 175 mg BID, 16 reported anemia, of which 11 were Grades I or II and 5 were Grades (III or IV); 1 reported Grade I or II alpoecia; 8 reported Grade I or II neutropenia; and none reported fluid retention, for which Grade I is defined as mild, Grade II is defined as moderate, Grade III is defined as severe, Grade IV is defined as life threatening.

[12] = system: MiaPaCa2 pancreatic; assay: MiaPaCa2 pancreatic xenograft model, combination with gemcitabine; type: in vivo; details: in combination with gemcitabine
[13] = system: HT-29 colon carcinoma; assay: Staged human tumor xenograft, HT-29; type: in vivo; details: oral 75 mg/kg/d QD, d 10-14, 20-24
Source text: as §12

[14] = Clinical 21-day QD regimen, MTD determination; type: in vivo
[15] = Clinical single dose and 5-day repeated dose study in 57 cancer subjects; type: in vivo, human
Experimental: (2-((4-hydroxyphenyl)amino)pyrid-3-yl)-4-methoxybenzenesulfonamide was evaluated in 57 cancer subjects in single dose (16 subjects) and 5-day repeated dose regimens (41 subjects). The doses administered in the single dose segment were 80 to 480 mg/m^2/day. In the 5-day repeated dose regimen (2-((4-hydroxyphenyl)amino)pyrid-3-yl)-4-methoxybenzenesulfonamide was given at 30 to 240 mg/m^2/day for a single cycle. […] Adverse drug reactions from the single dose and 5-day repeated dose segments included nausea and vomiting, diarrhea, epigastric pain, ileus and evidence of peripheral neuropathy. For the single dose segment, the dose limiting toxicity (DLT) was Grade 3 peripheral neuropathy in 1 of 5 subjects at 480 mg/m^2/day. In the 5-day repeated dose regimen the dose limiting toxicities were Grade 3 peripheral neuropathy in 1 of 4 subjects at 210 mg/m^2/day and Grade 4 intestinal paralysis in 1 of 4 subjects at 210 mg/m^2/day and in 1 of 6 subjects at 240 mg/m^2/day.

[16] = system: Calu-6 lung carcinoma; assay: Staged human tumor xenograft, Calu-6; type: in vivo; details: oral 75 mg/kg/d QD, d 10-14, 20-24
Source text: as §12

[17] = Clinical 7-day QD regimen, MTD determination; type: in vivo
Experimental: In the 7-day QD regimen, the 250 mg QD dose has been determined to be the MTD, as dose limiting toxicities of peripheral neuropathy/ileus were reported in 2 of 6 subjects at the 300 mg QD dose.

[18] = 134 patients, 200-300 mg QD, 125-175 mg BID
[19] = 5-day repeated dose regimen, 210 mg/m^2/day

CC(=O)O[C@@]12CO[C@@H]1C[C@H](O)[C@@]1(C)C(=O)[C@H](O)C3=C(C)[C@@H](OC(=O)[C@H](O)[C@@H](NC(=O)OC(C)(C)C)c4ccccc4)C[C@@](O)([C@@H](OC(=O)c4ccccc4)[C@H]21)C3(C)C [docetaxel]
% TGD^a: median % TGD increase compared to vehicle treated controls in time to 1 cc [1]: 67*** %
MTD ([2]; intravenous, docetaxel on a q.10d.×2 schedule, mice): 25 mg/kg/day
maximum wt loss [3]: 8%

CC[C@]1(O)C[C@@H]2CN(CCc3c([nH]c4ccccc34)[C@@](C(=O)OC)(c3cc4c(cc3OC)N(C)[C@H]3[C@@](O)(C(=O)OC)[C@H](OC(C)=O)[C@]5(CC)C=CCN6CC[C@]43[C@@H]65)C2)C1 [vinblastine]
Ki [4]: > 100 µM

CC[C@]1(O)C[C@H]2CN(CCc3c([nH]c4ccccc34)[C@@](C(=O)OC)(c3cc4c(cc3OC)N(C=O)[C@H]3[C@@](O)(C(=O)OC)[C@H](OC(C)=O)[C@]5(CC)C=CCN6CC[C@]43[C@@H]65)C2)C1 [vincristine, reference compound]
activity [5]: lacked activity
ILS [6]: 17%
efficacy in inhibiting tumor growth [7]: not efficacious

N.N.[Cl][Pt][Cl] [Cisplatin, cisplatin]
% TGD^a: median % TGD increase compared to vehicle treated controls in time to 1 cc [8]: 71*** %

O=P1(N(CCCl)CCCl)NCCCO1 (centres unmarked) [cyclophosphamide]
response of the model to the drug [6]: sensitive

CC(=O)O[C@H]1C(=O)[C@@]2(C)[C@H]([C@H](OC(=O)c3ccccc3)[C@]3(O)C[C@H](OC(=O)[C@H](O)[C@@H](NC(=O)c4ccccc4)c4ccccc4)C(C)=C1C3(C)C)[C@]1(OC(C)=O)CO[C@@H]1C[C@@H]2O [paclitaxel, reference compound]
activity [5]: lacked activity
response of the model to the drug [6]: resistant
antitumor activity ([9]; comparator, dose not given): not efficacious
efficacy in inhibiting tumor growth [7]: not efficacious

COc1ccc(S(=O)(=O)Nc2cccnc2Nc2ccc(O)cc2)cc1 [ABT-751, N-(2-((4-Hydroxyphenyl)amino)pyridin-3-yl)-4-methoxybenzenesulfonamide]
% T/C ([10]; oral 50 mg/kg/d QD, d 1-21): 46%
% T/C ([10]; oral 75 mg/kg/d QD, d 10-14, 20-24): 33%
% T/C ([10]; oral 100 mg/kg/d QD, d 10-14, 20-24): 25%
T/C, mean tumor volume at day 13 ([5]; day 13 vs vehicle control): 58%
ILS (delay in tumor growth) ([5]; in vivo): 32%
ILS (percent increase in life span) ([6]; 150 mg/kg orally once a day for 5 days): 42%
approximate MTD ([6]; orally once a day for 5 days): ~150 mg/kg
patients who reported Grade I or II alopecia [11, 18]: 1
patients who reported Grade I or II neutropenia [11, 18]: 8
patients who reported anemia [11, 18]: 16
patients who reported fluid retention [11, 18]: none
patients with anemia of Grades I or II [11, 18]: 11
patients with anemia of Grades III or IV [11, 18]: 5
myelosuppression, renal or hepatic toxicity ([11]; review of the safety data of the three studies): no significant myelosuppression, renal or hepatic toxicity
antitumor activity compared to single agent alone [12]: increase in antitumor activity
antitumor activity ([9]; 5-day schedule): only marginally active
antitumor activity ([9]; extended dosing, equivalent to BCNU at the MTD): significant antitumor response
% ILS [13]: 50%
MTD ([14]; QD regimen given for 21 days): 200 mg
dose limiting toxicities of fatigue, anorexia and suspect small bowel obstruction, subjects ([14]; human, in vivo, 21 days): 2/3
dose limiting toxicity: Grade 3 peripheral neuropathy, subjects [15, 19]: 1 of 4
dose limiting toxicity: Grade 4 intestinal paralysis, subjects [15, 19]: 1 of 4
dose limiting toxicity: Grade 4 intestinal paralysis, subjects ([15]; 5-day repeated dose regimen, 240 mg/m^2/day): 1 of 6
AUC versus dose ([15]; range of 30 to 480 mg/m^2/day): increased proportionally with dose
accumulation ([15]; range of 30 to 480 mg/m^2/day): no apparent accumulation
dose limiting toxicity: Grade 3 peripheral neuropathy, subjects ([15]; single dose segment, 480 mg/m^2/day): 1 of 5
% ILS ([7]; 50 mg/kg/d PO, QD, days 1-8): 34%
T/C (no. trials) ([7]; 50 mg/kg/d PO, QD, days 1-8): 50(2)
efficacy in inhibiting tumor growth [7]: effective in inhibiting tumor growth
% ILS [16]: 58%
MTD ([2]; po, HPM orally (q.d.×5, 5 days off)×2, mice): 100 mg/kg/day
MTD ([17]; 7-day QD regimen): 250 mg
dose limiting toxicities of peripheral neuropathy/ileus, subjects ([17]; human, in vivo, 7 days): 2 of 6

COc1cccc2c1C(=O)c1c(O)c3c(c(O)c1C2=O)C[C@@](O)(C(=O)CO)C[C@@H]3O[C@H]1C[C@H](N)[C@H](O)[C@H](C)O1 [doxorubicin]
ILS [6]: 13%
